Source: ChEMBL document CHEMBL1201862, “PubChem BioAssay data set” (2004)
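Tested at 5 concentrations; 48 h exposure; 96-well plates; endpoints linearly interpolated, else capped at highest concentration. GI50 is the concentration that inhibits growth by half.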 Calls of active or inactive are those of the source. No stated cut-off is given here; in the data, active = GI50 up to about 1.1 µM and inactive = higher.

How the values were obtained:
Test in all cases: NCI anticancer screen, dose series, 48 h
[1] = tested on: 786-0
[2] = tested on: A498
[3] = tested on: A549
[4] = tested on: ACHN
[5] = tested on: CAKI-1
[6] = tested on: CCRF-CEM
[7] = tested on: DLD-1
[8] = tested on: DMS-114
[9] = tested on: DMS-273
[10] = tested on: EKVX
[11] = tested on: HCC 2998
[12] = tested on: HCT-116
[13] = tested on: HCT-15
[14] = tested on: HL-60
[15] = tested on: HOP-18
[16] = tested on: HOP-62
[17] = tested on: HOP-92
[18] = tested on: HT-29
[19] = tested on: IGROV-1
[20] = tested on: K562
[21] = tested on: KM-20L2
[22] = tested on: KM12
[23] = tested on: LXFL 529
[24] = tested on: M14
[25] = tested on: M19-MEL
[26] = tested on: Malme-3M
[27] = tested on: NCI-H226
[28] = tested on: NCI-H23
[29] = tested on: NCI-H460
[30] = tested on: NCI-H522
[31] = tested on: OVCAR-4
[32] = tested on: OVCAR-5
[33] = tested on: OVCAR-8
[34] = tested on: RXF 393
[35] = tested on: SF-268
[36] = tested on: SF-295
[37] = tested on: SF-539
[38] = tested on: SK-MEL-28
[39] = tested on: SK-MEL-2
[40] = tested on: SK-MEL-5
[41] = tested on: SK-OV-3
[42] = tested on: SN12C
[43] = tested on: SNB-19
[44] = tested on: SNB-75
[45] = tested on: SNB-78
[46] = tested on: SW-620
[47] = tested on: TK-10
[48] = tested on: U-251
[49] = tested on: UACC-257
[50] = tested on: UACC-62
[51] = tested on: UO-31
[52] = tested on: XF498
[53] = tested on: COLO 205
[54] = tested on: LOX IMVI
[55] = tested on: MOLT-4
[56] = tested on: OVCAR-3
[57] = tested on: RPMI-8226
[58] = tested on: SR

For `CN(C)c1nc(N(C)c2ccccc2)[s+]s1`, the GI50 [1] was 51.5 µM (inactive), the GI50 [2] was 50.8 µM (inactive) and the GI50 [3] was 53.3 µM (inactive). For the same compound, the GI50 [4] was > 100 µM (inactive), the GI50 [5] was > 100 µM (inactive) and the GI50 [6] was 35.7 µM (inactive). The GI50 [7] was 92.3 µM (inactive), the GI50 [8] was 30.8 µM (inactive) and the GI50 [9] was 47.2 µM (inactive). The GI50 [10] was > 100 µM (inactive), the GI50 [11] was > 100 µM (inactive) and the GI50 [12] was 41.7 µM (inactive). For the same compound, the GI50 [13] was 54.3 µM, the GI50 [14] was 15.7 µM (inactive) and the GI50 [15] was > 100 µM (inactive). For the same compound, the GI50 [16] was > 100 µM (inactive), the GI50 [17] was > 100 µM (inactive) and the GI50 [18] was 89.5 µM (inactive). The GI50 [19] was > 100 µM (inactive), the GI50 [20] was 35.1 µM (inactive) and the GI50 [21] was > 100 µM (inactive). The GI50 [22] was 36.3 µM (inactive), the GI50 [23] was 36.8 µM (inactive) and the GI50 [24] was 32.4 µM (inactive). For the same compound, the GI50 [25] was 18.9 µM (inactive), the GI50 [26] was 60.4 µM (inactive) and the GI50 [27] was 99.8 µM (inactive). For the same compound, the GI50 [28] was 65.6 µM (inactive), the GI50 [29] was 16.7 µM (inactive) and the GI50 [30] was > 100 µM (inactive). The GI50 [31] was > 100 µM (inactive), the GI50 [32] was > 100 µM (inactive) and the GI50 [33] was 66.7 µM (inactive). The GI50 [34] was > 100 µM (inactive), the GI50 [35] was 63.5 µM (inactive) and the GI50 [36] was 78.3 µM (inactive). For the same compound, the GI50 [37] was 57.9 µM (inactive), the GI50 [38] was 64.3 µM (inactive) and the GI50 [39] was > 100 µM (inactive). For the same compound, the GI50 [40] was 36.5 µM (inactive), the GI50 [41] was > 100 µM (inactive) and the GI50 [42] was 44.8 µM (inactive). For the same compound, the GI50 [43] was > 100 µM (inactive), the GI50 [44] was 83.2 µM (inactive) and the GI50 [45] was > 100 µM (inactive). The GI50 [46] was > 100 µM (inactive), the GI50 [47] was > 100 µM (inactive) and the GI50 [48] was 31.6 µM (inactive). For the same compound, the GI50 [49] was 54.2 µM (inactive), the GI50 [50] was 12.3 µM (inactive) and the GI50 [51] was 99.1 µM (inactive). The GI50 [52] was 20 µM (inactive).
For `O=C1CSC(Cc2nc3ccccc3[nH]2)=N1`, the GI50 [1] was 17.1 µM (inactive), the GI50 [2] was 5.98 µM (inactive) and the GI50 [3] was 21.6 µM (inactive). The GI50 [4] was 5.41 µM (inactive), the GI50 [5] was 15.8 µM (inactive) and the GI50 [6] was 6.4 µM (inactive). The GI50 [53] was 23.5 µM (inactive), the GI50 [7] was 18.2 µM (inactive) and the GI50 [8] was 13.1 µM (inactive). The GI50 [9] was 15.4 µM (inactive), the GI50 [10] was 33.7 µM (inactive) and the GI50 [11] was 18.3 µM (inactive). For the same compound, the GI50 [12] was 12.9 µM (inactive), the GI50 [13] was 17.5 µM and the GI50 [14] was 28.6 µM (inactive). For the same compound, the GI50 [15] was 23.4 µM (inactive), the GI50 [16] was 22.3 µM (inactive) and the GI50 [17] was 29.9 µM (inactive). The GI50 [18] was 24.7 µM (inactive), the GI50 [19] was 26.6 µM (inactive) and the GI50 [20] was 15 µM (inactive). For the same compound, the GI50 [21] was 14.1 µM (inactive), the GI50 [22] was 17.6 µM (inactive) and the GI50 [54] was 13.9 µM (inactive). The GI50 [23] was 16.3 µM (inactive), the GI50 [24] was 15.4 µM (inactive) and the GI50 [25] was 7.03 µM (inactive). For the same compound, the GI50 [55] was 9.98 µM (inactive), the GI50 [26] was 10.6 µM (inactive) and the GI50 [27] was 13.9 µM (inactive). For the same compound, the GI50 [28] was 18.6 µM (inactive), the GI50 [30] was 17.7 µM (inactive) and the GI50 [56] was 14.3 µM (inactive). For the same compound, the GI50 [31] was 18.5 µM (inactive), the GI50 [32] was 28.8 µM (inactive) and the GI50 [33] was 23.5 µM (inactive). For the same compound, the GI50 [57] was 13.7 µM (inactive), the GI50 [34] was 18.7 µM (inactive) and the GI50 [35] was 16.7 µM (inactive). For the same compound, the GI50 [36] was 24.7 µM (inactive), the GI50 [37] was 20.7 µM (inactive) and the GI50 [38] was 16 µM (inactive). The GI50 [39] was 16.3 µM (inactive), the GI50 [40] was 7.45 µM (inactive) and the GI50 [41] was 36.1 µM (inactive). The GI50 [42] was 18.1 µM (inactive), the GI50 [43] was 21.1 µM (inactive) and the GI50 [44] was 17.1 µM (inactive). The GI50 [45] was 40.5 µM (inactive), the GI50 [58] was 5.83 µM (inactive) and the GI50 [46] was 31.9 µM (inactive). The GI50 [47] was 28.2 µM (inactive), the GI50 [48] was 17.3 µM (inactive) and the GI50 [49] was 19.7 µM (inactive). The GI50 [50] was 15.1 µM (inactive), the GI50 [51] was 20.6 µM (inactive) and the GI50 [52] was 20.4 µM (inactive).
